The values below come from US7026354B2 (priority 2001, dated 2006).

Assay type in all cases: cell-based
Assay [1] deals with S. aureus (MN8).
For assay [2], the system named is S. aureus (MN8). The source holds these as a separate data set.
In assay [3] the test system is S. aureus FRI-1169.
In assay [4] the test system is S. aureus FRI-1169. The source holds these as a separate data set.
For assay [5], the system named is S. aureus FRI-1187. Conditions: for ELISA: TSST-1 ng/OD unit / Reduction of Toxin %: Table 5, FRI-1187.
The subject of assay [6] is S. aureus FRI-1187.
For another assay, the system named is S. aureus strain RN 6390.
Where [7] appears, read: Table 1, 0.5% test compound, 24 h.
Where [8] appears, read: Table 1, 0.5% test compound, vs control.
[9] abbreviates: Table 6, Cetiol 1414E 0, PEA 0.05%.
[10] abbreviates: Table 6, Cetiol 1414E 0, PEA 0.15%.
Setting [11] is: Table 6, Cetiol 1414E 0, PEA 0.3%.
The mark [12] stands for this setting: Table 6, Cetiol 1414E 0, PEA 0.5%.
The mark [13] stands for this setting: Table 10, Cetiol 2.5 mM, PABA 0%.
[14] abbreviates: Table 10, Cetiol 10 mM, PABA 0%.

Several values for one entry are separate records, joined by “and”; a condition that tells them apart may be missing. Equal values may be shown once. Read-outs that look alike come from different tables or passages of the source. Some results are limits rather than exact numbers.

Turning to `NC(=O)c1ccccc1O` [2-hydroxybenzamide], the “ELISA: TSST-1 ng/OD unit” value with S. aureus (MN8) [1] (Table 1, 1.0% test compound, 24 h) is 65 ng/OD unit. Moreover, the “Reduction of Toxin %” value with S. aureus (MN8) [1] (Table 1, 1.0% test compound, vs control) is listed as 95%. Moreover, the CFU/mL in the assay on S. aureus (MN8) [2] (24 h) was 9.0E+07 CFU/mL. Moreover, the “Optical Density” value in the assay with S. aureus (MN8) [2] (24 h, 600 nm) was 0.549.
Turning to `O=C(O)c1ccccc1O` [2-hydroxybenzoic acid], in the assay on S. aureus (MN8) [1] (Table 2, 0.2% test compound), the “ELISA: TSST-1 ng/OD unit” value was 193 ng/OD unit. Further, in the assay on S. aureus (MN8) [2], the CFU/mL was 1.48E+09 CFU/mL and the “Optical Density” value is on record as 0.682.
As for `CC(=O)Nc1ccc(O)cc1` [4-Acetamidophenol], the “ELISA: TSST-1 ng/OD unit” value in the assay on S. aureus (MN8) [1] (Table 4, 0.5% test compound) amounted to 230 ng/OD unit. Moreover, in the assay on S. aureus (MN8) [2], the CFU/mL is given as 2.4E+09 CFU/mL and the “Optical Density” value is 0.629.
For the compound `CC(=O)N[C@@H](Cc1ccc(O)cc1)C(=O)O` [Acetyl tyrosine], the “ELISA: TSST-1 ng/OD unit” value in the assay with S. aureus (MN8) [1] (Table 3, 0.5% test compound) is 436 ng/OD unit. Also, in the assay on S. aureus (MN8) [2], the CFU/mL was 1.7E+09 CFU/mL and the “Optical Density” value is listed as 0.549.
Regarding `OCc1ccccc1` [Benzyl alcohol], in the assay on S. aureus (MN8) [1] (setting [7]), the “ELISA: TSST-1 ng/OD unit” value amounted to 131 ng/OD unit. For the same compound, in the assay with S. aureus (MN8) [1] (setting [8]), the “Reduction of Toxin %” value came out at 91%. Also, in the assay on S. aureus (MN8) [2] (24 h), the CFU/mL is 1.8E+08 CFU/mL. In the assay on S. aureus (MN8) [2] (24 h, 600 nm), the “Optical Density” value stood at 0.792.
With `O=C(O)c1cc(O)c(O)c(O)c1` [Gallic acid], the “ELISA: TSST-1 ng/OD unit” value in the assay with S. aureus (MN8) [1] (Table 3, 0.5% test compound) worked out at 63 ng/OD unit. In the assay on S. aureus (MN8) [2], the CFU/mL is listed as 1.2E+09 CFU/mL and the “Optical Density” value is given as 0.492.
For `OCCc1ccccc1` [Phenylethyl alcohol], the “% Reduction” value in the assay on S. aureus (MN8) [1] was 57% and 80% and 93% and 98%. For the same compound, the “ELISA: TSST-1 ng/OD unit” value in the assay on S. aureus (MN8) [1] (setting [7]) is 60 ng/OD unit; in the assay with S. aureus (MN8) [1] (Table 2, 0.5% test compound), 68 ng/OD unit; in the assay with S. aureus (MN8) [1] (Table 3, 0.5% test compound), 46 ng/OD unit; with S. aureus (MN8) [1] (Table 4, 0.5% test compound), 25 ng/OD unit; in the assay with S. aureus FRI-1187 [5] (0.25% test compound), 1 ng/OD unit; in the assay with S. aureus FRI-1187 [5] (0.5% test compound), “none detected”. In addition, the “Reduction of Toxin %” value in the assay on S. aureus (MN8) [1] (setting [8]) is 96%; in the assay on S. aureus (MN8) [1] (setting [9]) it was 32%; in the assay on S. aureus (MN8) [1] (setting [10]) it was 67%; with S. aureus (MN8) [1] (setting [11]) it was 90%; in the assay on S. aureus (MN8) [1] (setting [12]), 93%; in the assay on S. aureus FRI-1169 [3], 99% and 95%. Moreover, the “Reduction of Toxin %” value stood at 98% with S. aureus FRI-1187 [5] (0.25% test compound) and 100% with S. aureus FRI-1187 [5] (0.5% test compound). Besides, the “ng TSST-1 per CFU” value is 266 ng per CFU in the assay on S. aureus (MN8) [1] (setting [9]), 129 ng per CFU with S. aureus (MN8) [1] (setting [10]), 39 ng per CFU with S. aureus (MN8) [1] (setting [11]) and 27 ng per CFU in the assay with S. aureus (MN8) [1] (setting [12]). Further, the “ng TSST-1 per mL” value in the assay on S. aureus (MN8) [1] (setting [9]) was 826 ng per mL; with S. aureus (MN8) [1] (setting [10]), 561 ng per mL; with S. aureus (MN8) [1] (setting [11]), 201 ng per mL; in the assay on S. aureus (MN8) [1] (setting [12]), 106 ng per mL. Also, the “ng TSST-1/OD” value came to 323 ng/OD in the assay on S. aureus (MN8) [1] (Table 9, Glucopon 0 mM, PEA 0.05%); 152 ng/OD in the assay with S. aureus (MN8) [1] (Table 9, Glucopon 0 mM, PEA 0.15%); 54 ng/OD in the assay on S. aureus (MN8) [1] (Table 9, Glucopon 0 mM, PEA 0.3%); 13 ng/OD in the assay with S. aureus (MN8) [1] (Table 9, Glucopon 0 mM, PEA 0.50%). The “Log CFU/mL” value in the assay with S. aureus (MN8) [2] was 8.6 Log CFU/mL and 8.7 Log CFU/mL and 8.5 Log CFU/mL. In the assay on S. aureus (MN8) [2], the OD was 0.712 and 0.730 and 0.758 and 0.721. The “Optical Density” value in the assay with S. aureus (MN8) [2] was 0.542 and 0.551 and 0.476 and 0.554; with S. aureus FRI-1169 [4], 1.263 and 1.208; in the assay on S. aureus FRI-1187 [6], 1.296 and 1.244. In addition, the “effect on the growth of S. aureus cells” value is “minimal, if any, effect on the growth” in the assay on S. aureus FRI-1169 [4] and “minimal, if any, effect on the growth” in the assay on S. aureus FRI-1187 [6]. The “reduction of the amount of exotoxin production” value in the assay on S. aureus FRI-1187 [5] is on record as “significantly reduced”. Besides, the “Hemolytic Endpoint 50% lysis” value in the assay on S. aureus strain RN 6390 was “None Detected”; in the assay on S. aureus strain RN 6390 (Table 7, 0.3% test compound, reciprocal of the dilution giving 50% lysis) it was 3. For the same compound, in the assay with S. aureus strain RN 6390, the “production of alpha toxin” value was “significantly reduced”. In addition, the “% Toxin Inhibition” value was 97% with S. aureus strain RN 6390 (Table 7, 0.3% test compound) and 100% in the assay on S. aureus strain RN 6390 (Table 7, 0.4% test compound).
With `O=C(O)/C=C/c1ccccc1` [Trans-cinnamic acid], the “ELISA: TSST-1 ng/OD unit” value in the assay with S. aureus (MN8) [1] (Table 3, 0.5% test compound) was found to be 436 ng/OD unit. Besides, in the assay with S. aureus (MN8) [2], the CFU/mL is recorded as 1.7E+09 CFU/mL and the “Optical Density” value was determined as 0.549.
As for `Nc1ccc(C(=O)O)cc1` [p-aminobenzoic acid], the “ELISA: TSST-1 ng/OD unit” value with S. aureus (MN8) [1] (Table 2, 0.2% test compound) was determined as 317 ng/OD unit. In addition, the “ng TSST-1/OD” value in the assay with S. aureus (MN8) [1] (Table 10, Cetiol 0 mM, PABA 0.05%) came out at 5670 ng/OD; in the assay with S. aureus (MN8) [1] (Table 10, Cetiol 0 mM, PABA 0.09%) it was 3389 ng/OD; in the assay on S. aureus (MN8) [1] (Table 10, Cetiol 0 mM, PABA 0.19%), 1975 ng/OD; in the assay on S. aureus (MN8) [1] (Table 10, Cetiol 0 mM, PABA 0.38%) it was 1039 ng/OD. Besides, the CFU/mL in the assay on S. aureus (MN8) [2] was 1.1E+09 CFU/mL and 1.53E+09 CFU/mL and 1.85E+09 CFU/mL and 1.79E+09 CFU/mL and 1.15E+09 CFU/mL. The OD with S. aureus (MN8) [2] is 0.546 and 0.558 and 0.599 and 0.589. In the assay on S. aureus (MN8) [2], the “Optical Density” value is given as 0.618.
Consider `COC(=O)c1ccc(O)cc1` [p-hydroxybenzoic acid, methyl ester], for which the “ELISA: TSST-1 ng/OD unit” value in the assay with S. aureus (MN8) [1] (Table 2, 0.2% test compound) worked out at 506 ng/OD unit. The compound further had a CFU/mL with S. aureus (MN8) [2] above 1.5E+08 CFU/mL. For the same compound, the “Optical Density” value in the assay on S. aureus (MN8) [2] came out at 0.356. Moreover, in the assay on S. aureus strain RN 6390, the “production of alpha toxin” value is “significantly reduced”. The “% Toxin Inhibition” value in the assay with S. aureus strain RN 6390 (Table 8, 0.1% test compound) stood at 70%; in the assay on S. aureus strain RN 6390 (Table 8, 0.2% test compound), 94%. Also, the “Hemolytic Endpoint 50% lysis” value was determined as 79 in the assay with S. aureus strain RN 6390 (Table 8, 0.1% test compound, reciprocal of the dilution giving 50% lysis) and 16 in the assay on S. aureus strain RN 6390 (Table 8, 0.2% test compound, reciprocal of the dilution giving 50% lysis).
As to myreth-3 myristate [Cetiol 1414E], the “ng TSST-1 per CFU” value with S. aureus (MN8) [1] (Table 6, Cetiol 1414E 2.5 mM, PEA 0) came out at 239 ng per CFU; in the assay on S. aureus (MN8) [1] (Table 6, Cetiol 1414E 5 mM, PEA 0) it was 172 ng per CFU; in the assay with S. aureus (MN8) [1] (Table 6, Cetiol 1414E 10 mM, PEA 0), 61 ng per CFU. Moreover, the “% Reduction” value was 31% in the assay with S. aureus (MN8) [1] (setting [13]); 51% with S. aureus (MN8) [1] (Table 10, Cetiol 5 mM, PABA 0%); 53% in the assay with S. aureus (MN8) [1] (setting [14]). Also, the “ng TSST-1/OD” value in the assay on S. aureus (MN8) [1] (setting [13]) amounted to 3367 ng/OD; with S. aureus (MN8) [1] (Table 10, Cetiol 5 mM, PABA 0%), 2419 ng/OD; with S. aureus (MN8) [1] (setting [14]), 2286 ng/OD. In addition, in the assay with S. aureus (MN8) [2], the “Log CFU/mL” value is 8.6 Log CFU/mL and 8.5 Log CFU/mL. The OD in the assay on S. aureus (MN8) [2] is 0.881 and 0.976 and 0.637.
